{"source": "patent EP3409275B1", "about": "“COMPOSITION FOR PREVENTION AND/OR TREATMENT OF DISEASES ASSOCIATED TO HYPERALGESIA” (Neilos S.r.l., priority 2017, dated 2018)", "origin": "cited, not measured here", "key": {"[1]": {"target": "GPR55 orphan receptor (Homo sapiens, UniProt Q9Y2T6)", "sequence (Q9Y2T6 whole entry)": "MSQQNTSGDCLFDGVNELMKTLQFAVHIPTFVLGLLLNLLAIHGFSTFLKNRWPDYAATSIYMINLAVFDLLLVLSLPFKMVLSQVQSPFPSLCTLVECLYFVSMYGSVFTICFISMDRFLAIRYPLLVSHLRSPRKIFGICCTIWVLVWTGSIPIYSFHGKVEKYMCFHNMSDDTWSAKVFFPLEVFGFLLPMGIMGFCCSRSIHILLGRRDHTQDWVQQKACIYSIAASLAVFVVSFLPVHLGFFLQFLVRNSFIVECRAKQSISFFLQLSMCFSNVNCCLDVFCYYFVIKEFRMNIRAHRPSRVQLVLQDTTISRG", "settings": "activation of GPR55"}, "[2]": {"settings": "mice, curcumin 40 mg/kg, phenylbutazone at similar doses"}, "[3]": {"settings": "2 g of curcumin with 20 mg of piperine, healthy volunteers"}}}
{"smiles": "CCCCCCCCCCCCCCCC(=O)NCCO", "note": "[PEA, N-(2-hydroxyethyl) hexadecanamide]", "values": [{"measurement": "EC50", "setting": "[1]", "value": 4, "unit": "nM"}, {"measurement": "removal half-life", "setting": "in vivo", "value": "about 12 minutes"}, {"measurement": "area under the curve of PEA plasmatic level (AUC1-8h)", "setting": "oral administration", "value": "6525 ± 1372", "unit": "ng PEA min ml-1"}, {"measurement": "tmax", "setting": "oral administration", "value": 15, "unit": "min"}, {"measurement": "maximum plasmatic concentration (Cmax)", "setting": "oral administration, Wistar rats", "value": "420 ± 132", "unit": "nm"}]}
{"smiles": "CCCCC1C(=O)N(c2ccccc2)N(c2ccccc2)C1=O", "note": "[phenylbutazone]", "values": [{"measurement": "ulcerogenic index", "setting": "[2]", "value": 1.70}]}
{"smiles": "O=C(/C=C/C=C/c1ccc2c(c1)OCO2)N1CCCCC1", "note": "[piperine]", "values": [{"measurement": "increase in oral bioavailability of curcumin", "setting": "[3]", "value": 20, "unit": "times"}]}
